Key:
Assay type in all cases: in vivo, red seabream Pagrus major
red seabream = assay: Oxidation-reduction potential (ORP) in white muscle; settings: 2 weeks; 1 or 2 ppm in diet
Description: ORP was measured with ORP electrode (9300, Horiba, Kyoto, […]). The electrode was pierced into muscle and pressed gently until the potential stabilized for 60 s.

[1] = Total selenium concentrations in the tissues of red seabream after feeding selenium-supplemented dry pellet (fluorometric assay with 2,3-diamino-naphthalene)
Description: (§1) Red seabream fry (average body weight of 5.4 g) was obtained from private seed and seedling production company (Oita, Japan) and cultured for seven months up to average body weight of 250 g. Chemical composition of control diet was containing crude protein 50%; […]; Ca 2.3%; ash 16.0%; and phosphorus 1.5%. Each selenium-added diet was fed twice a day for 4 weeks in an amount of 1% of the average body weight. Body weight of fish in each tank was measured when fish were sampled and amount of diet was calculated according to the body weight of every sampling day. The added selenium concentrations in the diets were set in 0 ppm, 1 ppm, and 2 ppm selenium according to the previous study (Tohfuku et al. [2021]). After that, they were fed a commercial diet twice a day for 1 week. The test groups were the control group, the sodium selenite group (1 mg Se/kg feeding group and 2 mg Se/kg feeding group), the selenomethionine group (1 mg Se/kg feeding group and 2 mg Se/kg feeding group), and the selenoneine group (1 mg Se/kg feeding group and 2 mg Se/kg feeding group) were set. The number of fish raised was 15 from the start of rearing in each tank until the 2nd week, 10 from the 3rd to 4th week, and 5 in the 5th week. […] We reared red seabream by feeding of 1% dry pellet containing of sodium selenite, selenomethionine, or selenoneine of body weight twice a day for 4 weeks. After that, we replaced to 1% of commercial dry pellet of body weight twice a day for 1 week from the selenium supplementation. Average water temperature was 20.9 ℃ (19.0–23.9 ℃) and average dissolved oxygen was 7.41 mg/L. The body weight change of red seabream for 5 weeks is shown in Table S2.
(§2) Red seabream was anesthetized by adding 2 mL of anesthetic (1/100 volume of 2-methylquinoline dissolved in ethanol) to 1 L of seawater. A small amount of an anticoagulant (heparin sodium dissolved in physiological saline; 800 units/mL) was placed in a syringe in advance, and blood was collected from the caudal peduncle of each fish. The collected blood was centrifuged at 5000 rpm for 5 min (4 °C), divided into a plasma fraction and a precipitated fraction, and stored at − 50 °C. The precipitated fraction was used for analysis as the blood cell fraction.
Total selenium concentration was determined by fluorometric assay with 2,3-diamino-naphthalene, after digestion in 1.5 mL of nitric acid and perchloric acid (1:2 in volume) at 200–220 ℃ (Watkinson [1966]; Yamashita and Yamashita [2010]).

[2] = Selenoneine concentration in white muscle and blood cell by HPLC-ICP-MS (82Se); settings: fish cultured for 4 weeks
Description: as §1, §2
Selenoneine was separated by chromatography using a Shodex GF-310 column (4.5 mm × 150 mm; Showa Denko, Tokyo, Japan) equilibrated with 100 mM ammonium formate buffer containing 0.1% (w/v) Igepal CA-630 (MP Biomedicals, CA, USA). The injection volume was at 10 μL. The mobile phase delivered at 0.5 mL/min isocratically. ^82Se was detected with high performance liquid chromatography inductively coupled plasma mass spectrometry (HPLC-ICP-MS; Agilent 1100 Series and Agilent 7500 Series, Agilent Technology) (Yamashita and Yamashita [2010]). During separation, selenoneine was eluted at a retention time of 200 s, and the selenium concentration was determined using selenoneine as a standard.

[3] = 5 weeks (4 weeks supplementation, then 1 week commercial diet), diet 1 mg Se/kg added
[4] = 5 weeks (4 weeks supplementation, then 1 week commercial diet), diet 2 mg Se/kg added

C[Se]CC[C@H](N)C(=O)O [Selenomethionine, Seleno-L-methionine]
ORP in white muscle compared to control (red seabream): reduced ORP

O=[Se]([O-])[O-].[Na+].[Na+] [Sodium selenite, reference compound]
Total selenium content, blood cell ([1]; 2 weeks, diet 1 mg Se/kg added): 2.44 ± 0.27 mg Se/kg | Total selenium content, blood cell ([1]; 2 weeks, diet 2 mg Se/kg added): 2.49 ± 0.29 mg Se/kg | Total selenium content, blood cell ([1]; 4 weeks, diet 1 mg Se/kg added): 3.11 ± 0.40 mg Se/kg | Total selenium content, blood cell ([1]; 4 weeks, diet 2 mg Se/kg added): 2.86 ± 0.17 mg Se/kg | Total selenium content, blood cell [1, 3]: 3.18 ± 0.76 mg Se/kg | Total selenium content, blood cell [1, 4]: 3.13 ± 0.48 mg Se/kg | Total selenium content, brain ([1]; 2 weeks, diet 1 mg Se/kg added): 0.49 ± 0.03 mg Se/kg | Total selenium content, brain ([1]; 2 weeks, diet 2 mg Se/kg added): 0.50 ± 0.03 mg Se/kg | Total selenium content, brain ([1]; 4 weeks, diet 1 mg Se/kg added): 0.54 ± 0.07 mg Se/kg | Total selenium content, brain ([1]; 4 weeks, diet 2 mg Se/kg added): 0.45 ± 0.10 mg Se/kg | Total selenium content, brain [1, 3]: 0.35 ± 0.09 mg Se/kg | Total selenium content, brain [1, 4]: 0.33 ± 0.11 mg Se/kg | Tissues in which total selenium was accumulated compared with the control group ([1]; diet 1 mg Se/kg and 2 mg Se/kg): white muscle, kidney, and hepatopancreas | Total selenium content, heart ([1]; 2 weeks, diet 1 mg Se/kg added): 1.05 ± 0.20 mg Se/kg | Total selenium content, heart ([1]; 2 weeks, diet 2 mg Se/kg added): 0.99 ± 0.10 mg Se/kg | Total selenium content, heart ([1]; 4 weeks, diet 1 mg Se/kg added): 1.27 ± 0.11 mg Se/kg | Total selenium content, heart ([1]; 4 weeks, diet 2 mg Se/kg added): 1.22 ± 0.08 mg Se/kg | Total selenium content, heart [1, 3]: 1.20 ± 0.09 mg Se/kg | Total selenium content, heart [1, 4]: 1.04 ± 0.07 mg Se/kg | Total selenium content, hepatopancreas ([1]; 2 weeks, diet 1 mg Se/kg added): 1.12 ± 0.16 mg Se/kg | Total selenium content, hepatopancreas ([1]; 2 weeks, diet 2 mg Se/kg added): 1.31 ± 0.15 mg Se/kg | Total selenium content, hepatopancreas ([1]; 4 weeks, diet 1 mg Se/kg added): 1.40 ± 0.19 mg Se/kg | Total selenium content, hepatopancreas ([1]; 4 weeks, diet 2 mg Se/kg added): 1.45 ± 0.13 mg Se/kg | Total selenium content, hepatopancreas [1, 3]: 1.31 ± 0.23 mg Se/kg | Total selenium content, hepatopancreas [1, 4]: 1.28 ± 0.18 mg Se/kg | Total selenium content, kidney ([1]; 2 weeks, diet 1 mg Se/kg added): 2.46 ± 0.31 mg Se/kg | Total selenium content, kidney ([1]; 2 weeks, diet 2 mg Se/kg added): 2.50 ± 0.19 mg Se/kg | Total selenium content, kidney ([1]; 4 weeks, diet 1 mg Se/kg added): 3.07 ± 0.24 mg Se/kg | Total selenium content, kidney ([1]; 4 weeks, diet 2 mg Se/kg added): 3.06 ± 0.34 mg Se/kg | Total selenium content, kidney [1, 3]: 2.60 ± 0.32 mg Se/kg | Total selenium content, kidney [1, 4]: 2.71 ± 0.39 mg Se/kg | Total selenium content, spleen ([1]; 2 weeks, diet 1 mg Se/kg added): 2.58 ± 0.16 mg Se/kg | Total selenium content, spleen ([1]; 2 weeks, diet 2 mg Se/kg added): 2.80 ± 0.25 mg Se/kg | Total selenium content, spleen ([1]; 4 weeks, diet 1 mg Se/kg added): 3.09 ± 0.47 mg Se/kg | Total selenium content, spleen ([1]; 4 weeks, diet 2 mg Se/kg added): 2.94 ± 0.22 mg Se/kg | Total selenium content, spleen [1, 3]: 2.80 ± 0.28 mg Se/kg | Total selenium content, spleen [1, 4]: 2.47 ± 0.35 mg Se/kg | Total selenium content, white muscle ([1]; 2 weeks, diet 1 mg Se/kg added): 0.39 ± 0.02 mg Se/kg | Total selenium content, white muscle ([1]; 2 weeks, diet 2 mg Se/kg added): 0.40 ± 0.02 mg Se/kg | Total selenium content, white muscle ([1]; 4 weeks, diet 1 mg Se/kg added): 0.39 ± 0.01 mg Se/kg | Total selenium content, white muscle ([1]; 4 weeks, diet 2 mg Se/kg added): 0.39 ± 0.03 mg Se/kg | Total selenium content, white muscle [1, 3]: 0.38 ± 0.06 mg Se/kg | Total selenium content, white muscle [1, 4]: 0.36 ± 0.05 mg Se/kg | Selenoneine concentration, blood cell ([2]; diet 1 mg Se/kg added): 1.98 ± 0.39 mg Se/kg | Selenoneine concentration, blood cell ([2]; diet 2 mg Se/kg added): 1.91 ± 0.43 mg Se/kg | Selenoneine concentration, white muscle ([2]; diet 1 mg Se/kg added): 0.019 ± 0.002 mg Se/kg | Selenoneine concentration, white muscle ([2]; diet 2 mg Se/kg added): 0.020 ± 0.003 mg Se/kg | ORP in white muscle compared to control (red seabream): reduced ORP
